Columns and labels:
human P2X2/3 receptor = target: T1, human P2X2/3 receptor (Homo sapiens, UniProt P56373+Q9UBL9); experiment: P2X2/3 FLIPR (Fluorometric Imaging Plate Reader) assay, CHO-K1 cells, α,β-meATP-evoked calcium fluorescence; type: cell-based; conditions: agonist α,β-meATP 5 μM
T1 construct: expressed in transfected cells; host or cells: CHO-K1
T1 sequence (Q9UBL9 1-471): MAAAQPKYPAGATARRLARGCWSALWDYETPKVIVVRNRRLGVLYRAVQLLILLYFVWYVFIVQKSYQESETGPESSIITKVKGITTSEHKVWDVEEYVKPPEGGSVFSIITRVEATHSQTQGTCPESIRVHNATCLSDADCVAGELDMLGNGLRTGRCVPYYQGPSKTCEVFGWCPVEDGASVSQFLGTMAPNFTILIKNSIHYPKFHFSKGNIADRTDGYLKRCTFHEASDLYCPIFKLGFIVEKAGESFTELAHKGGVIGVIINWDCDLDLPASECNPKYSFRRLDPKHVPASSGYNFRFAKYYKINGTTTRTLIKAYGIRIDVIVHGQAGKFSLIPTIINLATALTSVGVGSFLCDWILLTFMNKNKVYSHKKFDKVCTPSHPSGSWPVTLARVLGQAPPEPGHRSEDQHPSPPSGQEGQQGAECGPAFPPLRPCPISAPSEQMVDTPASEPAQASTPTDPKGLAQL
T1 sequence (P56373 1-397): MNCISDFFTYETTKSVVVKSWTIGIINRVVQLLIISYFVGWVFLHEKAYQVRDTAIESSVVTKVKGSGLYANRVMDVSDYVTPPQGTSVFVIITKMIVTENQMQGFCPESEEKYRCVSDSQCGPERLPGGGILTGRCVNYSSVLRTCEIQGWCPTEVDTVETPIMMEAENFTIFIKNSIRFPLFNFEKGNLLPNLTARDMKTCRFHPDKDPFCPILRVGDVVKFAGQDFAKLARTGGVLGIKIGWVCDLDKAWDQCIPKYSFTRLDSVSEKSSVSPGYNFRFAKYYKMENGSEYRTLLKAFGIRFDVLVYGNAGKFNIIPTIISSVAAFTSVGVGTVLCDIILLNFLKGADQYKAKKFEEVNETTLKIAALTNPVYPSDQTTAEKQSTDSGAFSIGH
Method: (§1) CHO-K1 cells were transfected with cloned rat P2X3 or human P2X2/3 receptor subunits and passaged in flasks. 18-24 hours before the FLIPR experiment, cells were released from their flasks, centrifuged, and resuspended in nutrient medium at 2.5×10^5 cells/ml. The cells were aliquoted into black-walled 96-well plates at a density of 50,000 cells/well and incubated overnight in 5% CO2 at 37° C. On the day of the experiment, cells were washed in FLIPR buffer (calcium- and magnesium-free Hank's balanced salt solution, 10 mM HEPES, 2 mM CaCl2, 2.5 mM probenecid; FB). Each well received 100 μl FB and 100 μl of the fluorescent dye Fluo-3 AM [2 μM final conc.]. […]
(§2) Test compounds (dissolved in DMSO at 10 mM and serially diluted with FB) or vehicle were added to each well (25 μl of a 4× solution) and allowed to equilibrate for 20 minutes at room temperature. […] Fluorescence was measured for an additional 2 minutes at 1 second intervals after agonist addition. A final addition of ionomycin (5 μM, final concentration) was made to each well of the FLIPR test plate to establish cell viability and maximum fluorescence of dye-bound cytosolic calcium. Peak fluorescence in response to the addition of α,β-meATP (in the absence and presence of test compounds) was measured and inhibition curves generated using nonlinear regression. […]

rat P2X3 receptor = target: T2, rat P2X3 receptor (Rattus norvegicus, UniProt P49654); experiment: P2X3 FLIPR (Fluorometric Imaging Plate Reader) assay, CHO-K1 cells, α,β-meATP-evoked calcium fluorescence; type: cell-based; conditions: agonist α,β-meATP 1 μM
T2 construct: expressed in transfected cells; host or cells: CHO-K1
T2 sequence (P49654 1-397): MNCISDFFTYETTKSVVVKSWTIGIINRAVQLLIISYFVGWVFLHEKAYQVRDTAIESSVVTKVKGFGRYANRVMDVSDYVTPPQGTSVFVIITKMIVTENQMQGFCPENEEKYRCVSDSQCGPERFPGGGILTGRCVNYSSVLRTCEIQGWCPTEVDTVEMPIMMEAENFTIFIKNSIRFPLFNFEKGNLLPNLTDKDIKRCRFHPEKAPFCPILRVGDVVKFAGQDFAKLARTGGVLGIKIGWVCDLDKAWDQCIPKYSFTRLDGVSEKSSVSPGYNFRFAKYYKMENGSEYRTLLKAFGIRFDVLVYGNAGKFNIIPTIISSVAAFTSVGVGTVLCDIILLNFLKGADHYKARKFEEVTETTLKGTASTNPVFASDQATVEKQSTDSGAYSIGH
Method: as §1, §2

Compound: COc1cc(C(C)C)c(Oc2cnc(N)nc2N)cc1I [1b, 5-(5-Iodo-2-isopropyl-4-methoxy-phenoxy)-pyrimidine-2,4-diamine, reference compound]
- IC50 (human P2X2/3 receptor; read-out: pIC50 for the P2X2/3 receptor (converted)): 41.7 nM
- IC50 (rat P2X3 receptor; read-out: pIC50 for the P2X3 receptor (converted)): 9.77 nM

Compound: COc1cc(C(C)C)c(Oc2cnc(NC(CO)CO)nc2N)cc1S(N)(=O)=O [2a, 5-[4-Amino-2-(2-hydroxy-1-hydroxymethyl-ethylamino)-pyrimidin-5-yloxy]-4-isopropyl-2-methoxy-benzenesulfonamide]
- melting point: 180 to 180.9 °C

Compound: C#Cc1cc(Oc2cnc(NC(CO)CO)nc2N)c(C(C)C)cc1OC [4a, 2-[4-Amino-5-(5-ethynyl-2-isopropyl-4-methoxy-phenoxy)-pyrimidin-2-ylamino]-propane-1,3-diol]
- melting point: 135.5 to 139.1 °C

Compound: C#Cc1cc(Oc2cnc(N)nc2N)c(C(C)C)cc1O [4-(2,4-Diamino-pyrimidin-5-yloxy)-2-ethynyl-5-isopropyl-phenol]
- pIC50 for the P2X2/3 receptor (human P2X2/3 receptor): approximately 7.99
- pIC50 for the P2X3 receptor (rat P2X3 receptor): approximately 8.24

Reference: US20080207655A1, “Diaminopyrimidines as P2X3 and P2X2/3 modulators” (Roche Palo Alto LLC, priority 2007, published 2008)
